According to PubChem BioAssay AID1259411 (Chemical Carcinogenesis Research Information System (CCRIS), 2018):
Active and inactive are the calls of the source. The rule behind the calls is not given here.

System: rodent carcinogenicity bioassays, tumor incidence
Assay: CCRIS carcinogenicity studies
Text: The CCRIS database contains chemical records with carcinogenicity, mutagenicity, tumor promotion, and tumor inhibition test results. It was developed by the National Cancer Institute (NCI). Data are derived from studies cited in primary journals, current awareness tools, NCI reports, and other sources. Test results have been reviewed by experts in carcinogenesis and mutagenesis.
CCRIS provides historical information from the years 1985 - 2011. It is no longer updated.
This is an archive assay for CCRIS carcinogenicity studies.

[1] = Species: RAT, Route: ORAL, Tumor Site: Type of Lesion: LIVER

## OC[C@@H](O)[C@@H](O)[C@H](O)[C@H](O)CO
Species: MOUSE, Strain/Sex: B6C3F1/FEMALE, Route: ORAL, Dose: 0, 2.5, 5% IN THE DIET FOR 103 WK (STUDY DURATION: 103 WK), Dose: 0, 2.5, 5% IN THE DIET FOR 103 WK (STUDY DURATION: 103 WK)
  carcinogen call: inactive; negative
Species: MOUSE, Strain/Sex: B6C3F1/FEMALE, Route: ORAL, Dose: 0, 25000, 50000 PPM IN DIET, Dose: 0, 25000, 50000 PPM IN DIET
  carcinogen call: inactive; negative
Species: MOUSE, Strain/Sex: B6C3F1/MALE, Route: ORAL, Dose: 0, 2.5, 5% IN THE DIET FOR 103 WK (STUDY DURATION: 103 WK), Dose: 0, 2.5, 5% IN THE DIET FOR 103 WK (STUDY DURATION: 103 WK)
  carcinogen call: inactive; negative
Species: MOUSE, Strain/Sex: B6C3F1/MALE, Route: ORAL, Dose: 0, 25000, 50000 PPM IN DIET, Dose: 0, 25000, 50000 PPM IN DIET
  carcinogen call: inactive; negative
Species: RAT, Strain/Sex: F344/FEMALE, Route: ORAL, Dose: 0, 2.5, 5% IN THE DIET FOR 103 WK (STUDY DURATION: 103 WK), Dose: 0, 2.5, 5% IN THE DIET FOR 103 WK (STUDY DURATION: 103 WK)
  carcinogen call: inactive; negative
Species: RAT, Strain/Sex: F344/FEMALE, Route: ORAL, Dose: 0, 25000, 50000 PPM IN DIET, Dose: 0, 25000, 50000 PPM IN DIET
  carcinogen call: inactive; negative
Species: RAT, Strain/Sex: F344/MALE, Route: ORAL, Dose: 0, 2.5, 5% IN THE DIET FOR 103 WK (STUDY DURATION: 103 WK), Dose: 0, 2.5, 5% IN THE DIET FOR 103 WK (STUDY DURATION: 103 WK)
  carcinogen call: inactive; negative
Species: RAT, Strain/Sex: F344/MALE, Route: ORAL, Dose: 0, 25000, 50000 PPM IN DIET, Dose: 0, 25000, 50000 PPM IN DIET
  carcinogen call: inactive; negative

## COc1cc(-c2ccc(N=C=O)c(OC)c2)ccc1N=C=O
Species: MOUSE, Strain/Sex: B6C3F1/FEMALE, Route: ORAL, Dose: 0, 22000, 44000 PPM IN DIET FOR 78 WK (STUDY DURATION: 103 WK), Dose: 0, 22000, 44000 PPM IN DIET FOR 78 WK (STUDY DURATION: 103 WK)
  carcinogen call: inactive; negative
Species: MOUSE, Strain/Sex: B6C3F1/MALE, Route: ORAL, Dose: 0, 22000, 44000 PPM IN DIET FOR 78 WK (STUDY DURATION: 103 WK), Dose: 0, 22000, 44000 PPM IN DIET FOR 78 WK (STUDY DURATION: 103 WK)
  carcinogen call: inactive; negative
Species: RAT, Strain/Sex: F344/FEMALE, Route: GAVAGE, ORAL, Dose: 0, 1500, 3000 MG/KG FOR 22 WK, THEN 22000, 44000 PPM IN DIET FOR 56 WK (STUDY DURATION: 104 WK), Dose: 0, 1500, 3000 MG/KG FOR 22 WK, THEN 22000, 44000 PPM IN DIET FOR 56 WK (STUDY DURATION: 104 WK), Tumor Site: Type of Lesion: HEMATOPOIETIC SYSTEM (LEUKEMIA), UTERUS: ENDOMETRIAL STROMAL POLYP, EAR (ZYMBAL GLAND AND SKIN OF EAR): SQUAMOUS CELL CA, Tumor Site: Type of Lesion: HEMATOPOIETIC SYSTEM (LEUKEMIA), UTERUS: ENDOMETRIAL STROMAL POLYP, EAR (ZYMBAL GLAND AND SKIN OF EAR): SQUAMOUS CELL CA
  carcinogen call: active; positive
Species: RAT, Strain/Sex: F344/MALE, Route: GAVAGE, ORAL, Dose: 0, 1500, 3000 MG/KG FOR 22 WK, THEN 22000, 44000 PPM IN DIET FOR 56 WK (STUDY DURATION: 104 WK), Dose: 0, 1500, 3000 MG/KG FOR 22 WK, THEN 22000, 44000 PPM IN DIET FOR 56 WK (STUDY DURATION: 104 WK), Tumor Site: Type of Lesion: INTEGUMENTARY SYSTEM (SKIN (EXCLUDING SKIN OF EAR)): PAPILLOMA (NOS) OR BASAL CELL TUMOR OR TRICHOEPITHELIOMA OR SEBACEO
  carcinogen call: active; positive

## Cc1cc(C)c(N=Nc2c(O)c(S(=O)(=O)O)cc3cc(S(=O)(=O)O)ccc23)cc1C
[1]
  carcinogen call: active; positive

## Cc1cc(Cc2ccc(N)c(C)c2)ccc1N
[1]
  carcinogen call: active; positive

## CN(C#N)N=O
Species: RAT, Strain/Sex: SPRAGUE-DAWLEY/FEMALE, Route: ORAL, Dose: 0, 6.9 MG/KG IN 25 ML DRINKING WATER DAILY (STUDY DURATION: >11 MO), Tumor Site: Type of Lesion: FORESTOMACH: SQUAMOUS CELL CARCINOMA, ESOPHAGUS: SQUAMOUS CELL PAPILLOMA OR SQUAMOUS CELL CARCINOMA
  carcinogen call: active; positive

## O=C1OC(=O)c2ccccc21
Species: MOUSE, Strain/Sex: B6C3F1/FEMALE, Route: ORAL, Dose: 0, 12019, 24038 PPM IN DIET, TWA (STUDY DURATION: 104 WK), Dose: 0, 12019, 24038 PPM IN DIET, TWA (STUDY DURATION: 104 WK)
  carcinogen call: inactive; negative
Species: MOUSE, Strain/Sex: B6C3F1/MALE, Route: ORAL, Dose: 0, 16346, 32692 PPM IN DIET, TWA (STUDY DURATION: 104 WK), Dose: 0, 16346, 32692 PPM IN DIET, TWA (STUDY DURATION: 104 WK)
  carcinogen call: inactive; negative
Species: RAT, Strain/Sex: F344/FEMALE, Route: ORAL, Dose: 0, 7500, 15000 PPM IN DIET FOR 105 WK, Dose: 0, 7500, 15000 PPM IN DIET FOR 105 WK
  carcinogen call: inactive; negative
Species: RAT, Strain/Sex: F344/MALE, Route: ORAL, Dose: 0, 7500, 15000 PPM IN DIET FOR 105 WK, Dose: 0, 7500, 15000 PPM IN DIET FOR 105 WK
  carcinogen call: inactive; negative

## CNC(=O)Oc1cc(C)c(N(C)C)c(C)c1
Species: MOUSE, Strain/Sex: B6C3F1/FEMALE, Route: ORAL, Dose: 0, 68, 135 PPM IN DIET, TWA, Dose: 0, 68, 135 PPM IN DIET, TWA
  carcinogen call: inactive; negative
Species: MOUSE, Strain/Sex: B6C3F1/MALE, Route: ORAL, Dose: 0, 327, 654 PPM IN DIET, TWA, Dose: 0, 327, 654 PPM IN DIET, TWA
  carcinogen call: inactive; negative
Species: RAT, Strain/Sex: OSBORNE-MENDEL/FEMALE, Route: ORAL, Dose: 0, 339, 678 PPM IN DIET, TWA, Dose: 0, 339, 678 PPM IN DIET, TWA
  carcinogen call: inactive; negative
Species: RAT, Strain/Sex: OSBORNE-MENDEL/MALE, Route: ORAL, Dose: 0, 209, 418 PPM IN DIET, TWA, Dose: 0, 209, 418 PPM IN DIET, TWA
  carcinogen call: inactive; negative

## S=P(N1CC1)(N1CC1)N1CC1
Species: MOUSE, Strain/Sex: B6C3F1/FEMALE, Route: INTRAPERITONEAL, Dose: 0, 1.15, 2.3 MG/KG 3/WK FOR 43-52 WK (STUDY DURATION: 86-87 WK), Dose: 0, 1.15, 2.3 MG/KG 3/WK FOR 43-52 WK (STUDY DURATION: 86-87 WK), Tumor Site: Type of Lesion: HEMATOPOIETIC SYSTEM (LEUKEMIA): LYMPHOCYTIC LEUKEMIA, LYMPHATIC SYSTEM: LYMPHOMA
  carcinogen call: active; positive
Species: MOUSE, Strain/Sex: B6C3F1/MALE, Route: INTRAPERITONEAL, Dose: 0, 1.15, 2.3 MG/KG 3/WK FOR 52 WK (STUDY DURATION: 56-87 WK), Dose: 0, 1.15, 2.3 MG/KG 3/WK FOR 52 WK (STUDY DURATION: 56-87 WK), Tumor Site: Type of Lesion: INTEGUMENTARY SYSTEM (SKIN): SQUAMOUS CELL CARCINOMA, HEMATOPOIETIC SYSTEM (LEUKEMIA), LYMPHATIC SYSTEM: LYMPHOMA, EAR (, Tumor Site: Type of Lesion: INTEGUMENTARY SYSTEM (SKIN): SQUAMOUS CELL CARCINOMA, HEMATOPOIETIC SYSTEM (LEUKEMIA), LYMPHATIC SYSTEM: LYMPHOMA, EAR (
  carcinogen call: active; positive
Species: RAT, Strain/Sex: SPRAGUE-DAWLEY/FEMALE, Route: INTRAPERITONEAL, Dose: 0, 0.7, 1.4, 2.8 MG/KG 3/WK FOR 21-52 WK (STUDY DURATION: 21-87 WK), Dose: 0, 0.7, 1.4, 2.8 MG/KG 3/WK FOR 21-52 WK (STUDY DURATION: 21-87 WK), Tumor Site: Type of Lesion: MAMMARY GLAND: ADENOCARCINOMA, PITUITARY GLAND: CHROMOPHOBE ADENOMA
  carcinogen call: active; positive
Species: RAT, Strain/Sex: SPRAGUE-DAWLEY/MALE, Route: INTRAPERITONEAL, Dose: 0, 0.7, 1.4, 2.8 MG/KG 3/WK FOR 19-52 WK (STUDY DURATION: 19-87 WK), Dose: 0, 0.7, 1.4, 2.8 MG/KG 3/WK FOR 19-52 WK (STUDY DURATION: 19-87 WK), Tumor Site: Type of Lesion: INTEGUMENTARY SYSTEM (SKIN): SQUAMOUS CELL CARCINOMA, INTEGUMENTARY SYSTEM (SUBCUTANEOUS TISSUE): SARCOMA, HEMATOPOIETIC, Tumor Site: Type of Lesion: INTEGUMENTARY SYSTEM (SKIN): SQUAMOUS CELL CARCINOMA, INTEGUMENTARY SYSTEM (SUBCUTANEOUS TISSUE): SARCOMA, HEMATOPOIETIC
  carcinogen call: active; positive
